For assay [1], the target named is T1, human FGFR3 V555M enzyme (cytoplasmic domain carrying V555M mutation) (Homo sapiens, UniProt P22607, V555M).
T1 construct: human FGFR3 V555M enzyme (cytoplasmic domain carrying V555M mutation, from Carna Biosciences); purchased Carna Biosciences
The experiment in a line: FGFR3 V555M mobility shift assay (enzymatic assay). In kind it is biochemical. The settings on record: 30 μM ATP, 45 minutes at 30° C., Caliper EZ reader II. As to the method: FGFR3 V555M Mobility Shift Assay (Enzymatic Assay)
(§1) In a final reaction volume of 25 μL, 0.04 ng/μL human FGFR3 V555M enzyme (cytoplasmic domain carrying V555M mutation, from Carna Biosciences) was incubated with 30 μM ATP, 1 μM FL-peptide 30 substrate and 250 nL of testing compound (1% DMSO final) in assay buffer (100 mM HEPES pH 7.4, 10 mM MgCl2, 0.003% Brij35, 1 mM DTT). After incubation for 45 minutes at 30° C. the reaction was stopped with 10 μL of 0.5M EDTA pH 8.0, and then 25 μL of reaction mixture was transferred to reading plate and measured on Caliper EZ reader II. The substrate-product conversion rate was used as raw data for normalization and concentration-response curve (10 dose points with 4× serial dilution, starting with 10 μM) was plotted using Prism to calculate IC50 (M), pIC50 (−log IC50) and HillSlope value.

Assay [2] has as its target T2, human FGFR3 wild type enzyme (cytoplasmic domain) (Homo sapiens, UniProt P22607).
T2 construct: human FGFR3 wild type enzyme (cytoplasmic domain, from Carna Biosciences); purchased Carna Biosciences
The experiment in a line: FGFR3 wild type mobility shift assay (enzymatic assay). The class given is biochemical. The settings on record: 75 μM ATP, 50 minutes at 30° C., Caliper EZ reader II. As to the method: FGFR3 Wild Type Mobility Shift Assay (Enzymatic Assay)
as §1, with “FGFR3 wild type” for “FGFR3 V555M”, “(cytoplasmic domain,” for “(cytoplasmic domain carrying V555M mutation,”, “with 75” for “with 30”, “for 50” for “for 45”

Assay [3] concerns the target T3, NIH/3T3 cells overexpressing FGFR3 WT-TACC3 fusion protein (Homo sapiens, UniProt P22607).
T3 construct: NIH/3T3 FGFR3 WT-TACC3 CTG (IC50); other: 72-hr incubation, CellTiter Glo, starting with 10 μM; fused on or other part: Q9Y6A5 (Transforming acidic coiled-coil-containing protein 3)
The experiment in a line: NIH/3T3 FGFR3 WT-TACC3 cell proliferation assay. The settings on record: 72-hr incubation, CellTiter Glo, starting with 10 μM; read-out: NIH/3T3 FGFR3 WT-TACC3 CTG (IC50). In kind it is cell-based. As to the method: NIH/3T3 FGFR3 WT-TACC3 Cell Proliferation Assay
(§2) In day 1, 90 μL of cell suspension (NIH/3T3 cells overexpressing FGFR3 WT-TACC3 fusion protein) (total 30,000 cells per well in growth medium (DMEM containing 1% Glutamax, 10% FBS and 1% Pen/Strep)) was seeded in a 96-well plate and then incubated overnight at 37° C. and 5% CO2. In day 2, 10 μL of growth medium containing 10-fold stock solution of testing compound was added into cell cultures (9 dose points with 4× serial dilution, starting with 10 μM, 0.1% DMSO final). After 72-hr incubation at 37° C. and 5% CO2, in day 5 a volume of 50 μL CellTiter Glo (CTG) reagent was added into cell-containing 96-well plate and the plate was incubated at room temperature for 10 minutes before RLUs (relative light unit) were measured on a microplate reader with luminescence detection module. The RLU value was normalized to survival % and concentration-response curve was plotted using Prism to calculate IC50 (M), pIC50 (−log IC50) and HillSlope value.

Assay [4] concerns the target T4, NIH/3T3 cells overexpressing FGFR3 V555M-TACC3 fusion protein (Homo sapiens, UniProt P22607, V555M, cells depend on it).
T4 construct: NIH/3T3 FGFR3 V555M-TACC3 CTG (IC50); other: 72-hr incubation, CellTiter Glo, starting with 10 μM; fused on or other part: Q9Y6A5 (Transforming acidic coiled-coil-containing protein 3)
The experiment in a line: NIH/3T3 FGFR3 V555M-TACC3 cell proliferation assay. In kind it is cell-based. The settings on record: 72-hr incubation, CellTiter Glo, starting with 10 μM; read-out: NIH/3T3 FGFR3 V555M-TACC3 CTG (IC50). As to the method:
NIH/3T3 FGFR3 V555M-TACC3 Cell Proliferation Assay
as §2, with “V555M-TACC3” for “WT-TACC3”
(Cellular ATP, detected with luciferase, serves as a proxy for viable cell number.)

The subject of assay [5] is NIH/3T3 cells transfected with the same control vector. In words: NIH/3T3 mock cell proliferation assay (counter assay, general toxicity). In kind it is cell-based. The settings on record: Mus musculus, NIH3T3, 72 h, 72-hr incubation, CellTiter Glo, starting with 30 μM; counter assay for general toxicity; read-out: NIH/3T3 MOCK CTG (IC50). How it is done: NIH/3T3 Mock Cell Proliferation Assay
as §2, with “cells transfected with the same control vector as in the above two proliferation assays)” for “cells overexpressing FGFR3 WT-TACC3 fusion protein)”, “with 3×” for “with 4×”, “with 30” for “with 10”, “μM, 0.3%” for “μM, 0.1%”

T3 sequence (P22607 whole entry, change not shown, the tested form may be a part): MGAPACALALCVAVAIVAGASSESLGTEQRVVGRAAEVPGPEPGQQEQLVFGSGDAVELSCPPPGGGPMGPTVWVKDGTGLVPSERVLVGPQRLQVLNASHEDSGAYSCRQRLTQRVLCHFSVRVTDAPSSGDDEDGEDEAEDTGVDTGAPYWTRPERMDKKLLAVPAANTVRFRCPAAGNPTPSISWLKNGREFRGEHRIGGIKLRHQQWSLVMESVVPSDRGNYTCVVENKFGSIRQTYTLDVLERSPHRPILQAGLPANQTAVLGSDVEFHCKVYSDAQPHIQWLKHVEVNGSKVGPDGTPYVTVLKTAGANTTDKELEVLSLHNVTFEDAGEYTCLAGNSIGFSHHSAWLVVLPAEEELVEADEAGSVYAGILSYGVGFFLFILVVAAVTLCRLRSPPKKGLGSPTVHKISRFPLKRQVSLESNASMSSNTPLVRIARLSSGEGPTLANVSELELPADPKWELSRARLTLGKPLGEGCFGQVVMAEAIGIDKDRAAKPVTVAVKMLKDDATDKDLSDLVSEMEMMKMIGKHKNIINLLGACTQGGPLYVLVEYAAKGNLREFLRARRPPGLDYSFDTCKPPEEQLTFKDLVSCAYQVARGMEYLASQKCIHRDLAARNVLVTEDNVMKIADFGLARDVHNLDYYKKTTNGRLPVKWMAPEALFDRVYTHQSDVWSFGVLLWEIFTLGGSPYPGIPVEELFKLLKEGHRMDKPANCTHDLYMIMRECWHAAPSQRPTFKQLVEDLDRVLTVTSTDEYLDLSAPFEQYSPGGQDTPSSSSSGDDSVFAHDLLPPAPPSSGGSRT
T1 sequence (P22607 397-806 V555M limits assumed): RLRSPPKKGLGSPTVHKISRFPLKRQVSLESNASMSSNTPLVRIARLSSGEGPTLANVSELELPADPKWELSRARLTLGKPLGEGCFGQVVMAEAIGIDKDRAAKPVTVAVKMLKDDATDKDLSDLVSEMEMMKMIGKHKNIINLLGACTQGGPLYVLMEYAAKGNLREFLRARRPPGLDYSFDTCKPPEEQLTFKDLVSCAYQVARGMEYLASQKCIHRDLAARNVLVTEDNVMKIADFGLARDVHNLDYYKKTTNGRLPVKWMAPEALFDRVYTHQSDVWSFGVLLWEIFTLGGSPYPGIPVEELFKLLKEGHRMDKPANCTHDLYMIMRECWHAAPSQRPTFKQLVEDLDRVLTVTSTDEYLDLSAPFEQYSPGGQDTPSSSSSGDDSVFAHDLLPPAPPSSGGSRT
T2 sequence (P22607 397-806 limits assumed): as the sequence (P22607 397-806 V555M limits assumed) above, with M159V counted along it
T4 sequence (P22607 whole entry V555M, the tested form may be a part): as the sequence (P22607 whole entry, change not shown, the tested form may be a part) above, with V555M counted along it

For `CC(C)c1ccnc(C(C)Nc2c(-c3nc4ccc(N5CCOCC5)cc4[nH]3)c(=O)[nH]c3ccccc23)n1` (single isomer, unassigned) [Compound 49a, (S*)-4-((1-(4-isopropylpyrimidin-2-yl)ethyl)amino)-3-(6-morpholino-1H-benzo[d]-imidazol-2-yl)quinolin-2(1H)-one], the IC50 came to 7.07 nM in assay [1] and 27 nM in assay [2].

For the compound `CC(Nc1c(-c2nc3ccc(N4C[C@@H](C)O[C@@H](C)C4)cc3[nH]2)c(=O)[nH]c2ccccc12)c1ncccn1` (single isomer, unassigned) [Compound 22a, 3-(6-((2S,6R)-2,6-dimethylmorpholino)-1H-benzo[d]imidazol-2-yl)-4-(((S*)-1-(pyrimidin-2-yl)ethyl)amino)quinolin-2(1H)-one], the IC50 amounted to 0.421 nM in assay [1], 0.445 nM in assay [2] and 6390 nM in assay [5]. The GI50 turned out to be 13.3 nM in assay [3] and 6.48 nM in assay [4].

In the case of `C[C@H](Nc1c(-c2nc3cc(C(F)(F)F)c(N(C)C4CCN(C)CC4)cc3[nH]2)c(=O)[nH]c2ccccc12)c1ccccn1` [Compound 19, (S)-3-(6-(methyl(1-methylpiperidin-4-yl)amino)-5-(trifluoromethyl)-1H-benzo[d]-imidazol-2-yl)-4-((1-(pyridin-2-yl)ethyl)amino)quinolin-2(1H)-one], the IC50 came to 0.358 nM in assay [1], 0.367 nM in assay [2] and 2450 nM in assay [5]. The GI50 in assay [3] is 46.1 nM; in assay [4], 66.5 nM.

Regarding `CC(Nc1c(-c2nc3ccc(N4CCOCC4)cc3[nH]2)c(=O)[nH]c2ccccc12)c1cscn1` (single isomer, unassigned) [Compound 52a, (S*)-3-(6-morpholino-1H-benzo[d]imidazol-2-yl)-4-((1-(thiazol-4-yl)ethyl)amino)-quinolin-2(1H)-one], the IC50 in assay [1] was found to be 0.208 nM; in assay [2], 0.858 nM; in assay [5], 1430 nM. In addition, the figures for the GI50 in assay [3] and in assay [4] were 23.1 nM and 6.69 nM, respectively.

With `CC(Nc1c(-c2nc3ccc(N4CC5CCC(C4)O5)cc3[nH]2)c(=O)[nH]c2ccccc12)c1ncccn1` (single isomer, unassigned) [Compound 44a, 3-(6-(8-oxa-3-azabicyclo[3.2.1]octan-3-yl)-1H-benzo[d]imidazol-2-yl)-4-(((S*)-1-(pyrimidin-2-yl)ethyl)amino)quinolin-2(1H)-one], the results for the IC50 in assay [1], in assay [2] and in assay [5] were 0.147 nM, 0.244 nM and 3040 nM, respectively. The GI50 was 9.46 nM in assay [3] and 3.98 nM in assay [4].

Consider `C[C@H](Nc1c(-c2nc3ccc(N4CCOCC4)cc3[nH]2)c(=O)[nH]c2ccccc12)c1nccc(C2CC2)n1` (single isomer, unassigned) [Compound 50a, (S*)-4-((1-(4-cyclopropylpyrimidin-2-yl)ethyl)amino)-3-(6-morpholino-H-benzo[d]-imidazol-2-yl)quinolin-2(1H)-one], for which the IC50 in assay [1] turned out to be 8.75 nM; in assay [2] it was 48.9 nM.

On to `CC(Nc1c(-c2nc3ccc(N4CCN(C)CC4)cc3[nH]2)c(=O)[nH]c2ccccc12)c1cocn1` (single isomer, unassigned) [Compound 11a, (S*)-3-(6-(4-methylpiperazin-1-yl)-1H-benzo[d]imidazol-2-yl)-4-((1-(oxazol-4-yl)-ethyl)amino)quinolin-2(1H)-one], for which the IC50 in assay [1] worked out at 12 nM; in assay [2], 32.6 nM.

Take `CC(Nc1c(-c2nc3ccc(N4C[C@@H](C)O[C@H](C)C4)cc3[nH]2)c(=O)[nH]c2ccccc12)c1ncccn1` (single isomer, unassigned) [Compound 37b, 3-(6-((2R,6R)-2,6-dimethylmorpholino)-1H-benzo[d]imidazol-2-yl)-4-(((R*)-1-(pyrimidin-2-yl)ethyl)amino)quinolin-2(1H)-one]: the IC50 came out at 20.2 nM in assay [1] and 29.3 nM in assay [2].

As to `CC(Nc1c(-c2nc3ccc(N4CCN(CCC(F)(F)F)CC4)cc3[nH]2)c(=O)[nH]c2ccccc12)c1ncccn1` (single isomer, unassigned) [Compound 41b, (R*)-4-((1-(pyrimidin-2-yl)ethyl)amino)-3-(6-(4-(3,3,3-trifluoropropyl)piperazin-1-yl)-1H-benzo[d]imidazol-2-yl)quinolin-2(1H)-one], the values for the IC50 in assay [1] and in assay [2] were 19.4 nM and 39.4 nM, respectively.

On to `CC(Nc1c(-c2nc3ccc(-c4cnn(C)c4)cc3[nH]2)c(=O)[nH]c2ccccc12)c1ncccn1` (single isomer, unassigned) [Compound 53b, (R*)-3-(6-(1-methyl-1H-pyrazol-4-yl)-1H-benzo[d]imidazol-2-yl)-4-((1-(pyrimidin-2-yl)ethyl)amino)quinolin-2(1H)-one], for which the IC50 in assay [1] came out at 15.3 nM; in assay [2] it was 35.2 nM.

Take `CC(Nc1c(-c2nc3cc(C(F)(F)F)c(N4CCC(C(=O)OC(C)(C)C)CC4)cc3[nH]2)c(=O)[nH]c2ccccc12)c1ncccn1` (single isomer, unassigned) [Compound 57, (S*)-tert-butyl 1-(2-(2-oxo-4-((1-(pyrimidin-2-yl)ethyl)amino)-1,2-dihydroquinolin-3-yl)-5-(trifluoromethyl)-1H-benzo[d]imidazol-6-yl)piperidine-4-carboxylate]: the IC50 in assay [1] is 19.2 nM; in assay [2], 61.9 nM.

The record behind these values is patent publication US11384075B2, “Quinolinone compounds” (Janssen Pharmaceutica NV, priority 2017, dated 2022).
